# Assays:
# Type in all cases: cell-based
# ERα LBD = target: T1, ERα LBD (Homo sapiens, UniProt P03372); test: Ability to bind to ERα: pBIND-ERα LBD / GAL4 luciferase reporter in HEK293 cells; parameters: key: firefly luciferase / Renilla luciferase luminescence ratio; details: negative control 0.00847035
# T1 construct: host or cells: HEK293
# T1 sequence (P03372 311-547 limits assumed): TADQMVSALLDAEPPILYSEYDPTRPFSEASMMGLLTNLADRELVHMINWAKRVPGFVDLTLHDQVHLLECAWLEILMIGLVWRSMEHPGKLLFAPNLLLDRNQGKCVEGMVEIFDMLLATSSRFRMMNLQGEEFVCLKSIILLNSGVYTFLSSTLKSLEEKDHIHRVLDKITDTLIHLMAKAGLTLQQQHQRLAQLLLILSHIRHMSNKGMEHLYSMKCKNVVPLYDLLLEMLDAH
# Description: (§1) A human kidney-derived cell line HEK293 was cultured (37° C., 5% CO2) in Dulbecco's modified Eagle medium (hereinafter, abbreviated to DMEM) containing 10% (v/v) fetal bovine serum (FBS) and penicillin/streptomycin.
# (§2) 2) Measurement of Binding Activity Against ERs
# (§3) Specifically, HEK293 cells were inoculated at a cell density of 4.0×10^4 cells/well to a 96-well plate. After 12 hours therefrom, the medium was replaced with a culture solution (DMEM containing 5% (v/v) charcoal-treated serum). The cells were cotransfected with pBIND-ERα for the expression of ERα LBD or pBIND-ERβ for the expression of ERβ LBD (Promega Corp.) and pGL4.35[luc2P/9XGAL4UAS/Hygro](Promega Corp.) using Lipofectamine 2000 (Invitrogen Corp.) according to the protocol attached to the product. 24 hours after transfection, the medium was replaced with a culture solution containing a test sample, followed by culture for another 24 hours. The activity measurement of firefly luciferase (index for the ligand binding activity of ER) and Renilla reniformis luciferase (index for the transfection efficiency of the plasmids) was carried out using Dual-Glo™ Luciferase Assay System (Promega Corp.) according to the attached protocol. The luminescence intensity of the firefly luciferase was divided by the luminescence intensity of the Renilla reniformis luciferase to calculate a relative light unit (RLU).
# ERβ LBD = target: T2, ERβ LBD (Homo sapiens, UniProt Q92731); test: Ability to bind to ERβ: pBIND-ERβ LBD / GAL4 luciferase reporter in HEK293 cells; parameters: key: RLU = firefly luminescence / Renilla luminescence; details: negative control 0.0118997
# T2 construct: host or cells: HEK293
# Description: This evaluation system is a system exploiting difference in the sequence of the ligand binding domain (LBD) between ERα and ERβ (J Endocrinol 163: 379-383 (1999)), and enables selective activation of ERβ to be evaluated by determining the binding of a ligand to LBD and the activation of ER.
# as §1, §2
# as §3, with “This measurement was carried out according to the method described in JP-B-5990058. Specifically,” for “Specifically,”
# ERβ = target: T3, ERβ (Homo sapiens, UniProt Q92731); test: Ability to activate transcription mediated by ERβ (pcDNA3-ERβ, pERE luciferase, HEK293 cells); details: negative control 0.001475
# T3 construct: host or cells: HEK293
# Description: (§4) 1) Experimental Method (Measurement of Transcriptional Activity Mediated by ERs)
# (§5) HEK293 cells were inoculated at a cell density of 4.0×10^4 cells/well to a 96-well plate. After 12 hours therefrom, the medium was replaced with a culture solution (DMEM containing 5% (v/v) charcoal-treated serum). The cells were cotransfected with pcDNA3-ERα or pcDNA3-ERβ (Promega Corp.) and pERE and pRL-CMV (Promega Corp.) using Lipofectamine 2000 (Invitrogen Corp.) according to the protocol attached to the product. 24 hours after transfection, the medium was replaced with a culture medium containing a test sample, followed by culture for another 24 hours. Then, luciferase activity was measured using Dual-Glo™ Luciferase Assay System (Promega Corp.) according to the attached protocol. The luminescence intensity of firefly luciferase (index for the ability to activate transcription mediated by ERE) was divided by the luminescence intensity of Renilla reniformis luciferase (index for the transfection efficiency of the plasmids) to calculate a relative light unit (RLU).
# ERα = target: T4, ERα (Homo sapiens, UniProt P03372); test: Ability to activate transcription mediated by ERα (pcDNA3-ERα, pERE luciferase, HEK293 cells); details: negative control 0.004573
# T4 construct: host or cells: HEK293
# T4 sequence (P03372 1-595): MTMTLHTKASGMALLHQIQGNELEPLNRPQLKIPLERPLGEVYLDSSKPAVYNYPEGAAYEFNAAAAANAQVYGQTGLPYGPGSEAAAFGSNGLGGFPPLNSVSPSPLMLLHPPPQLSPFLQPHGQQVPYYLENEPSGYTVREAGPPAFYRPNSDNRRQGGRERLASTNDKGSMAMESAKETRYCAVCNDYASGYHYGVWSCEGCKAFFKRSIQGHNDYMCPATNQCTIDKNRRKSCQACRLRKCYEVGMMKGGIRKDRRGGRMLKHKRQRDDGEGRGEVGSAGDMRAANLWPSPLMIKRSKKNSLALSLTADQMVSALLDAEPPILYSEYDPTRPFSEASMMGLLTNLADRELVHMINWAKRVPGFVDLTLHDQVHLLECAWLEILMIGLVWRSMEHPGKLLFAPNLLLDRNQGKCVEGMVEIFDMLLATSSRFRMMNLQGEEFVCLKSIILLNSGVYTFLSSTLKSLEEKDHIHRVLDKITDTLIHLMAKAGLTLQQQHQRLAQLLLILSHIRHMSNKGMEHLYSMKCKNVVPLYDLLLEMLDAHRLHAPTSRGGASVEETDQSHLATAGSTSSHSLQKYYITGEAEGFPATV
# Description: as §4, §5
# T2 sequence (Q92731 264-498 limits assumed): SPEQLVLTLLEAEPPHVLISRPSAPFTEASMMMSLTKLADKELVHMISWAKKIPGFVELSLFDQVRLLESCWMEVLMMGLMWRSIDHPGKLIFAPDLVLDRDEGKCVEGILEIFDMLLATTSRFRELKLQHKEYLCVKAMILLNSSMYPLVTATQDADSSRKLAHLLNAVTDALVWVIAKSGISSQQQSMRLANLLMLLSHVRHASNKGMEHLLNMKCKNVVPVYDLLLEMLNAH
# T3 sequence (Q92731 whole entry): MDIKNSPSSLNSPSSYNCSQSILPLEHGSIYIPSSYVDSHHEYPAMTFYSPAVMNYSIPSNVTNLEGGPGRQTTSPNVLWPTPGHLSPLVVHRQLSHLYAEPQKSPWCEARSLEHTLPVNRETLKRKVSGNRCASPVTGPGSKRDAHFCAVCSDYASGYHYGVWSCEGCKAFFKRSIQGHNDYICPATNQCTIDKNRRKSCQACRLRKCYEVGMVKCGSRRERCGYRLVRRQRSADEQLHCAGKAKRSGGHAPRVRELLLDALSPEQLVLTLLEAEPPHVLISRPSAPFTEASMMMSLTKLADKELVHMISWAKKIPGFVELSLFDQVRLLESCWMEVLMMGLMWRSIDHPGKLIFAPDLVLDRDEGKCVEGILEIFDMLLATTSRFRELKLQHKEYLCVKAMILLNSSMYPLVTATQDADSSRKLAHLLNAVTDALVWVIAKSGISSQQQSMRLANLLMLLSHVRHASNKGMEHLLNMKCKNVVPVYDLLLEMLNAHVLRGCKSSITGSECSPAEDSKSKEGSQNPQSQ
Molecule,"relative light unit (RLU), ligand binding activity ERα (ERα LBD; 0.01 nM)","relative light unit (RLU), ligand binding activity ERα (ERα LBD; 0.1 nM)","relative light unit (RLU), ligand binding activity ERα (ERα LBD; 1 nM)","relative light unit (RLU), ligand binding activity ERα (ERα LBD; 10 nM)","relative light unit (RLU), ligand binding activity ERα (ERα LBD; 100 nM)","relative light unit (RLU), ligand binding activity ERβ (ERβ LBD; 0.01 nM)","relative light unit (RLU), ligand binding activity ERβ (ERβ LBD; 0.1 nM)","relative light unit (RLU), ligand binding activity ERβ (ERβ LBD; 1 nM)","relative light unit (RLU), ligand binding activity ERβ (ERβ LBD; 10 nM)","relative light unit (RLU), ligand binding activity ERβ (ERβ LBD; 100 nM)",also measured
"Oc1ccc(CC(c2ccc(O)cc2)c2cocn2)cc1 (centres unmarked) [Compound 16, 4,4′-(1-(oxazol-4-yl)ethane-1,2-diyl)diphenol]",0.01424,0.01773,0.01714,0.0182,0.0245,0.0173,0.02216,0.01759,0.06729,0.8625,
"CC=CC(Cc1ccc(O)cc1)c1ccc(O)cc1 (centres unmarked) [Compound 5, 4,4′-(pent-3-ene-1,2-diyl)diphenol]",,,0.006803,0.008307,0.319,0.01699,0.1395,0.9744,1.153,1.216,
"O=C(NC(Cc1ccc(O)cc1)c1ccc(O)cc1)C(F)(F)F (centres unmarked) [Compound 10, N-(1,2-bis(4-hydroxyphenyl)ethyl)-2,2,2-trifluoroacetamide]",,,0.008272,0.0163,0.01156,,,0.01539,0.0134,0.2211,
"Oc1ccc(CC(c2ccc(O)cc2)C2CC2)cc1 (centres unmarked) [Compound 1, 4,4′-(1-cyclopropylethane-1,2-diyl)diphenol]",,,0.01123,0.01001,0.03514,,,0.04726,0.7801,0.674,

# Second part, led by results:
"relative light unit (RLU), ligand binding activity ERα (ERα LBD; 0.01 nM)","relative light unit (RLU), ligand binding activity ERα (ERα LBD; 0.1 nM)","relative light unit (RLU), ligand binding activity ERα (ERα LBD; 1 nM)","relative light unit (RLU), ligand binding activity ERα (ERα LBD; 10 nM)","relative light unit (RLU), ligand binding activity ERα (ERα LBD; 100 nM)","relative light unit (RLU), ligand binding activity ERβ (ERβ LBD; 0.01 nM)","relative light unit (RLU), ligand binding activity ERβ (ERβ LBD; 0.1 nM)","relative light unit (RLU), ligand binding activity ERβ (ERβ LBD; 1 nM)","relative light unit (RLU), ligand binding activity ERβ (ERβ LBD; 10 nM)","relative light unit (RLU), ligand binding activity ERβ (ERβ LBD; 100 nM)",Molecule,also measured
0.01362,0.006796,0.01285,0.01611,0.01431,0.01293,0.01887,0.02471,0.04313,0.8322,"Oc1ccc(CC(c2ccc(O)cc2)c2cnco2)cc1 (centres unmarked) [Compound 13, 4,4′-(1-(oxazol-5-yl)ethane-1,2-diyl)diphenol]",
0.03608,0.1312,1.177,2.968,3.391,0.6452,2.101,2.317,2.025,2.304,"4-(4,4-difluoro-2-(4-hydroxyphenyl)but-3-en-1-yl)-3,5 [Compound 18-F]","relative light unit (RLU), transcription activation ERβ (ERβ; 0.01 pM): 0.003231; relative light unit (RLU), transcription activation ERβ (ERβ; 0.1 pM): 0.00681; relative light unit (RLU), transcription activation ERβ (ERβ; 1 pM): 0.01281; relative light unit (RLU), transcription activation ERβ (ERβ; 10 pM): 0.03479; relative light unit (RLU), transcription activation ERβ (ERβ; 100 pM): 0.03642; relative light unit (RLU), transcription activation ERβ (ERβ; 1000 pM): 0.03659; relative light unit (RLU), transcription activation ERβ (ERβ; 10000 pM): 0.03706; relative light unit (RLU), transcription activation ERα (ERα; 0.1 pM): 0.01194; relative light unit (RLU), transcription activation ERα (ERα; 1 pM): 0.01337; relative light unit (RLU), transcription activation ERα (ERα; 10 pM): 0.01971; relative light unit (RLU), transcription activation ERα (ERα; 100 pM): 0.04067; relative light unit (RLU), transcription activation ERα (ERα; 1000 pM): 0.06395; relative light unit (RLU), transcription activation ERα (ERα; 10000 pM): 0.06152"
0.02799,0.0373,0.02919,0.06191,1.588,0.06046,0.9104,1.877,2.074,2.408,"Oc1ccc(CC(C=C(F)F)c2ccc(O)cc2)cc1 (centres unmarked) [Compound 7, 4,4′-(4,4-difluorobut-3-ene-1,2-diyl)diphenol]","relative light unit (RLU), transcription activation ERβ (ERβ; 0.01 pM): 0.002068; relative light unit (RLU), transcription activation ERβ (ERβ; 0.1 pM): 0.002153; relative light unit (RLU), transcription activation ERβ (ERβ; 1 pM): 0.00383; relative light unit (RLU), transcription activation ERβ (ERβ; 10 pM): 0.01191; relative light unit (RLU), transcription activation ERβ (ERβ; 100 pM): 0.02336; relative light unit (RLU), transcription activation ERβ (ERβ; 1000 pM): 0.03253; relative light unit (RLU), transcription activation ERβ (ERβ; 10000 pM): 0.03471; relative light unit (RLU), transcription activation ERα (ERα; 0.1 pM): 0.006825; relative light unit (RLU), transcription activation ERα (ERα; 1 pM): 0.008059; relative light unit (RLU), transcription activation ERα (ERα; 10 pM): 0.008285; relative light unit (RLU), transcription activation ERα (ERα; 100 pM): 0.01621; relative light unit (RLU), transcription activation ERα (ERα; 1000 pM): 0.04026; relative light unit (RLU), transcription activation ERα (ERα; 10000 pM): 0.04776"
